Measured values as given in patent US10765690B2, “TLR4 agonists and compositions thereof and their use in the treatment of cancer” (GlaxoSmithKline Intellectual Property Development Limited, priority 2015, dated 2020).

Experiments:
[1] = tested on: Mouse Ovarian Tumor (MOT) cells; assay: Mouse Ovarian Tumor (MOT) model, survival, wild-type TLR4 mice; type: in vivo, C3H/FeJ, C3H/HeOuJ, C3H/HeN mice; conditions: for protection (survival): 1 and 10 ug doses IP day 7 after mitomycin C day 6
Method: To determine whether the timing of administration of the chemotherapeutic and TLR4 ligand is important for the anti-cancer response, C3H/FeJ mice (10 per group) seeded with Mouse Ovarian Tumor (MOT) cells (10^4 tumor cells via the IP route) on day 0 were treated with, 1) nothing (untreated control), 2) mitomycin C (40 ug) on day 6, 3) CRX-527-SE (10 ug in a Stable Emulsion formulation containing 2% squalene oil-in-water) on day 4 followed by mitomycin C on day 6, 4) CRX-527-SE on day 5 followed by mitomycin C on day 6, 5) both CRX-527-SE and mitomycin C on day 6, 6) mitomycin C on day 6 followed by CRX-527-SE on day 7, 7) mitomycin C on day 6 followed by CRX-527-SE on day 10, and 8) mitomycin C on day 6 followed by CRX-527-SE on day 11. The dose/route for mitomycin C and CRX-527-SE administration was always 40 ug IP and 10 ug IP, respectively.
The effect of formulation for the anti-cancer activity observed with CRX-527 was evaluated in the MOT tumor model. In the experiment shown in FIG. 5, C3H/HeN mice (wild-type TLR4, 10 per group) were seeded with MOT tumor (10^4 tumor cells IP) on day 0. Mitomycin C (40 ug IP) was administered on day 6, and 1 or 10 ug CRX-527 formulated in AF (Aqueous Formulation=0.02% dipalmitoyl phosphatidyl choline in water), IN (Intranasal Formulation=2% glycerol in water) or SE (Stable Emulsion=2% squalene oil-in-water) was administered via the IP route on day 7. […] The results of this experiment indicate that the potency of CRX-527 in this model can be enhanced through formulation.
Group size was 10 in this experiment. […]

[2] = tested on: B16-F10 melanoma cells; assay: B16-F10 murine melanoma model, survival; type: in vivo, BDF1 mice; conditions: cyclophosphamide alone 3 mg IP on day 5
Method: The efficacy of combination therapy with a chemotherapeutic agent and an AGP was also tested in a murine melanoma model using a non-immunogenic tumor called B16-F10. In these experiments, BDF1 mice were seeded with B16-F10 melanoma cells (1.5×10^3 IV) on day 0. At various time thereafter, cancer-bearing mice were treated with cyclophosphamide (aka Cytoxan) alone (3 mg IP), CRX-527-IN (10 ug) alone or a combination of the two agents.

[3] = tested on: L1210 murine leukemia cells; assay: L1210 murine leukemia model, survival of tumor-bearing mice; type: in vivo, BDF1 mice; conditions: mitomycin C 40 ug IP day 6 followed by CRX-527-AF 100 ug IP day 7; compared to either component alone; through day 54
Method: To investigate whether a combination treatment consisting of the chemotherapeutic mitomycin C and the AGP CRX-527 would prolong survival of cancer-bearing mice better than either treatment alone, BDF1 mice (10 per group) that had been seeded with L1210 murine leukemia cells (10^4 tumor cells via the intraperitoneal (IP) route) on day 0 were treated with, 1) nothing (untreated control), 2) an intraperitoneal injection of mitomycin C (40 ug) on day 6, 3) an IP injection of CRX-527-AF (100 ug CRX-527 in Aqueous Formulation (AF), which is 0.02% dipalmitoyl phosphatidyl choline in water) on day 7, or 4) an IP injection of mitomycin C on day 6 followed by an IP injection of CRX-527-AF on day 7. Survival curves through day 54 are presented for each group in FIG. 1.

[4] = tested on: Mouse Ovarian Tumor (MOT) cells; assay: MOT model in TLR4 mutant (non-responder) mice, survival; type: in vivo; conditions: MOT-bearing C3H/HeJ TLR4 mutant mice
[5] = tested on: B16-F10 melanoma cells; assay: B16-F10 melanoma lung metastasis, lung tumor burden; type: in vivo, BDF1 mice; conditions: CRX-527-SE 10 ug IV and cyclophosphamide 4 mg IP on day 1
Method: In further experimentation, B16-F10 melanoma cells transfected with green fluorescent protein were used to quantify metastasis of the tumor to the lungs of mice. Because green fluorescent protein allows quantification of the amount of tumor in the lungs of B16-F10-bearing mice, it was possible to evaluate the efficacy of various treatment regimens using lung tumor burden as the read-out. BDF1 mice were seeded with B16-F10 melanoma cells (1.5×10^3 IV) on day 0. […] On day 26, the mice were sacrificed and their lungs were collected. The lungs from each mouse were photographed and then homogenized so that the luciferase activity could be quantified to determine how much B16-F10 tumor was present. […] This observation was confirmed when the lungs were homogenized and evaluated for luciferase activity.

[6] = tested on: 4T1 tumor cells; assay: 4T1 murine breast cancer model, survival after removal of primary tumor; type: in vivo, BALB/c Mice; conditions: cyclophosphamide 3 mg IP and CRX-527 various doses IV on day 15; vs vehicle or cyclophosphamide alone
Method: The benefit of combining chemotherapeutic agents with TLR4 ligands such as AGPs was also confirmed in the 4T1 murine breast cancer model. For the experiments conducted using this metastatic cancer model, 4T1 tumor cells (7×10^3 in 50 uL) were injected into the lower mammary gland of each mouse on day 0. The primary tumors were surgically removed on day 14, the mice (10 per group) were treated on day 15 with vehicles, cyclophosphamide (3 mg IP) or cyclophosphamide (3 mg IP) and CRX-527 (various doses IV).

[7] = tested on: CT-26 colorectal tumor cells; assay: CT-26 syngeneic colon carcinoma model, escalating i.p. doses (Example 9); type: in vivo, Balb/c mice; conditions: CRX-527 4, 20, 100 ug per mouse i.p. biweekly
Description: The CT26 mouse colon carcinoma (CT26.WT; ATCC #CRL-2638) cell line was obtained from ATCC. It is an N-nitroso-N-methylurethane-(NNMU) induced, undifferentiated colon carcinoma cell line known in the art. For example, it is described in: Wang M, et al. Active immunotherapy of cancer with a nonreplicating recombinant fowlpox virus encoding a model tumor-associated antigen. J. Immunol. 154: 4685-4692, 1995 (PubMed: 7722321), which is incorporated by reference in its entirety herein. For preparation of tumor cells, A frozen (−140° C.) vial of CT-26 (mouse colon carcinoma cells), from ATCC (cat # CRL-2638, lot #59227052) are thawed and cultured in basic RPMI (with 10% FBS) media over the following week.
CT-26 cells (passage 12) are harvested from the flask in complete medium. Cells are centrifuged and resuspended in RPMI (without FBS), this step is repeated 3 times. Cell density and viability are checked via trypan blue exclusion. Cells are then diluted to desired density (5×10^5 cells per mL) and kept on ice.
Escalating doses of CRX 527 are evaluated for their efficacy in reducing tumor growth. Animals are weighed and innoculated on the right hind quarter with 0.5×10^5 CT26 tumor cells per mouse on Day 0. A total of 130 mice are inoculated with tumor cells—assuming 30% failure rate (either too big or too small at time of start of study), the goal is to have n=10 for each group. After tumor cell innoculation, tumor growth and total body weight are measured 3 times a week for the duration of the study. Randomization occurs on day 10 or 11 when the average tumor volume is approximately 100 mm^3. Begining on the day of randomization, animals are dosed with CRX 527 or vehicle i.p. biweekly, for a total of 6 doses. Mice remain on study until tumors reach >2000 cu mm for two consecutive measurements, they are removed from study for other reasons (i.e. weight loss >20%, ulceration on tumor, etc.) or until the end of the study. After euthanization the tumors may be removed and subject to dissociation for flow analysis and/or FFPE for IHC analysis.
The above protocol was used to generate the results in FIG. 17 at the dosages indicated. In almost every case, Balb/c mice that were inoculated with 0.5×10^5 CT-26 colorectal tumor cells on the right hind quarter developed tumors that, when treated i.p. with vehicle (2% glycerol) only, and progressed as expected. […] FIG. 17.

[8] = tested on: Mouse Ovarian Tumor (MOT) cells; assay: Mouse Ovarian Tumor (MOT) model, survival, wild-type TLR4 mice; type: in vivo, C3H/FeJ, C3H/HeOuJ, C3H/HeN mice

For `CO[C@@]12[C@H](COC(N)=O)C3=C(C(=O)C(C)=C(N)C3=O)N1C[C@@H]1N[C@@H]12` [mitomycin C, reference compound], the survival ([1]; C3H/HeN mice, mitomycin C alone 40 ug IP day 6, compared to no treatment control) was “small increase in survival”.

In the case of `O.O=P1(N(CCCl)CCCl)NCCCO1` (stereo not shown) [cyclophosphamide, 2-[bis(2-chloroethyl)amino]tetrahydro-2H-1,3,2-oxazaphosphorine 2-oxide monohydrate], the survival [2] is reported as “modest prolongation”.

In the case of `CCCCCCCCCCC[C@H](CC(=O)N[C@H]1[C@H](OC[C@H](NC(=O)C[C@@H](CCCCCCCCCCC)OC(=O)CCCCCCCCC)C(=O)O)O[C@H](CO)[C@@H](OP(=O)(O)O)[C@@H]1OC(=O)C[C@@H](CCCCCCCCCCC)OC(=O)CCCCCCCCC)OC(=O)CCCCCCCCC` [CRX-527], the survival [3] is reported as “significantly prolonged survival”, the “dose required to induce a high level of protection” value ([1]; AF formulation (0.02% dipalmitoyl phosphatidyl choline in water), IP day 7 after mitomycin C day 6) is reported as 10 µg and the survival times ([1]; C3H/FeJ mice, CRX-527-SE 10 ug IP at the same time as or up to 5 days after mitomycin C 40 ug IP (day 6), vs untreated, mitomycin alone or CRX527-SE followed by mitomycin C) is reported as “significantly prolonged survival times”. The survival ([1]; C3H/HeN mice, CRX-527 1 or 10 ug IP day 7, one day after mitomycin C 40 ug IP) was “prolonged survival”, the “potency compared to the AF formulation” value ([1]; IN formulation (2% glycerol in water), IP day 7 after mitomycin C day 6) was “enhanced potency” and the “protection (survival)” value ([1]; IN formulation) was “highly effective”. The “potency compared to the AF formulation” value ([1]; SE formulation (2% squalene oil-in-water), IP day 7 after mitomycin C day 6) was “enhanced potency”, the “protection (survival)” value ([1]; SE formulation) was “highly effective” and the survival ([1]; both mitomycin C and CRX-527, compared to either component alone) was “significantly prolonged survival”. For the same compound, the survival [4] was “did not promote survival”, the “luciferase activity in homogenized lungs” value ([5]; day 26, vs vehicle or either agent alone) was “significantly less luciferase activity” and the “lung tumor burden by visual examination” value ([5]; lungs collected day 26) was “lower lung tumor burden than any other group”. The survival times [6] was “longer survival times”, the survivability [7] was “Dose dependence was also seen” and the tumor growth ([7]; 6 doses, compared to vehicle (2% glycerol)) was “inhibited tumor growth in a dose dependent manner”. For the same compound, the survival ([8]; C3H/HeOuJ wild-type mice, alone or in combination with mitomycin C) was “promoted survival” and the “resistance to re-challenge with the same tumor” value ([8]; mice cured of MOT tumor by combination treatment with mitomycin C and CRX-527, compared to naive control mice) was “resistant to re-challenge”.
